Data taken from patent publication US20240226107A1, “UBIQUITIN-SPECIFIC PROTEASE 1 (USP1) INHIBITOR” (SIMCERE ZAIMING PHARMACEUTICAL CO., LTD., priority 2021, published 2024).
Like-named read-outs stand apart in the source and are kept apart here.

Key:
[1] = Metabolic stability in vitro in human hepatocytes; format: in vitro ADME; conditions: read-out: Intrinsic clearance
Experimental: The concentration of each compound in the reaction system was measured by LC/MS/MS to calculate the intrinsic clearance of the compounds to be tested, and evaluate the metabolic stability in vitro in human hepatocytes.
To the incubation plate, 198 μL of 0.5×10^6 cells/mL human hepatocyte mixture and 2.0 μL of 100 μM compound to be tested or positive control were added to initiate reaction. Incubation was performed at 900 rpm at 37° C. […] Then the mixture was vortex-mixed for 5 min. […] Then 100 μL of supernatant of each compound was transferred to a 96-well sample plate, and 100 μL of purified water was added to dilute the sample.
The resulting samples were quantified by ion chromatograms. The residual rate was calculated from peak areas of the compounds to be tested or the positive control. The slope k was determined using Microsoft Excel by linear regression of natural logarithm of the residual rate to the incubation time. The intrinsic clearance (in vitro CLint, μL/min/10^6 cells) was calculated from the slope value according to the following equation: […]

[2] = Solubility (PBS pH 7.4) of compound solids; format: physicochemical; conditions: aqueous buffer, thermodynamic from solid, PBS pH 7.4, 25° C.
Experimental: The solubility (PBS pH 7.4) of compound solids to be tested was determined by LC/MS/MS. Approximately 1 mg of each compound powder was accurately weighed into a glass vial, and DMSO was added in a volume of 1 mL per milligram of compound. […] In 490 μL of water and acetonitrile (1:1) containing an internal standard, 5 μL of 1 mg/mL solution and 5 μL of PBS pH 7.4 solution were mixed to prepare 10 μg/mL standard concentration solution of the sample to be tested. Then 10 μL of 10 μg/mL solution was diluted in 90 μL of water and acetonitrile (1:1) containing an internal standard to prepare 1 μg/mL standard concentration solution of the sample to be tested. The dilution factor of the standard solution can be adjusted according to the strength of response signals in LC/MS. Approximately 1 mg of each compound powder was accurately weighed into a glass vial, and PBS pH 7.4 solution was added in a volume of 1 mL per milligram of compound. A stir bar was added to each vial, and the solubility sample vial was shaken at 1100 rpm at 25° C. for 24 h. After shaking, the stir bar was removed, and the sample was transferred to a filter plate and filtered using a vacuum manifold. […]
The resulting samples were determined by LC/MS/MS. The sample solubility was calculated from peak areas of the solution of the compound to be tested and the standard concentration solution, according to the following equation: […]

PXR = PXR (Homo sapiens (Human), UniProt O75469); assay: Potential for PXR activation in DPX2 cells; format: cell-based; conditions: 30 μM, versus 20 μM rifampicin
PXR, sequence (O75469 whole entry): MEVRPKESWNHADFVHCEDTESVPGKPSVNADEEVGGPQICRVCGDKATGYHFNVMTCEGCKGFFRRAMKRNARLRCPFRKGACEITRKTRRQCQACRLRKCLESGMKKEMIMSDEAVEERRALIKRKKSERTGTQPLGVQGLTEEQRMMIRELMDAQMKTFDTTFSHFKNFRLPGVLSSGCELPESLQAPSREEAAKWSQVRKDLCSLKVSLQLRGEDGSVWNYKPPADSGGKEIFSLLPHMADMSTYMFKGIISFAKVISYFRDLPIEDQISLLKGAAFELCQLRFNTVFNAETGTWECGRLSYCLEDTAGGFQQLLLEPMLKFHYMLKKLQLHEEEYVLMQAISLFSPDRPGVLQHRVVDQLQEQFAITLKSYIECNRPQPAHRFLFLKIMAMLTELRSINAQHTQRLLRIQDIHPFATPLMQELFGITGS
Experimental: DMSO solutions of the compounds to be tested and the control compound rifampicin solution were prepared, and diluted with Puracyp dosing medium (Puracyp, Cat. No: D-500-100) at 37° C. to respective test concentrations. The final concentrations of the compounds to be tested were 30 μM, 10 μM, and 1 μM, respectively, and the final concentration of rifampicin was 20 μM. The final concentration of DMSO in the test solution was 0.1%. In addition, 0.1% DMSO solution prepared with Puracyp dosing medium was used as a control.
DPX2 cells were suspended in Puracyp Culture medium (Puracyp, Cat No.: C-500-100) at a cell density of 4.5×10^5 cell/mL. Then, the suspension was placed on a 96-well culture plate at 100 μL/well for incubation at 37° C. for 24 h. The medium in appropriate wells of the 96-well culture plate was replaced (three times per well) by 100 μL of solution of the compounds to be tested and a control compound solution. After replacement, the plate was incubated at 37° C. for 24 h. The medium was then replaced (three times per well) by a newly prepared test solution of the compounds to be tested and a rifampicin test solution, and the plate was incubated at 37° C. for 24 h.
The medium in the 96-well culture plate was pipetted and washed twice with PBS. To each well, 50 μL of reagent diluted as required by CellTiter-Fluor™ Cell Viability Assay Kit (Promega, Cat. No.: G6082) was added, and incubated at 37° C. for 0.5 h. The 96-well plate was cooled to room temperature, and the fluorescence value of each well at 505 nm was measured in a fluorescence mode with a microplate reader at an excitation wavelength of 400 nm. Then, 50 μL of reagent prepared as required by One-Glo Luciferase Assay System (Promega, Cat. No.: E6120) was added to each well, and the mixture was incubated at room temperature for 5 min. The luminescence value of each well was read by using a lumen meter.
Normalized luciferase activity was determined by RLU/RFU, and the RLU and RFU of the samples were mean values of duplicate wells, respectively.
[formula] • Fold of activation: fold of activation of normalized luciferase; • RLUtest: measured luminescence value of test wells at each test dose of test compounds; • RLUvehicle: measured luminescence value of test wells when tested with the control DMSO solution; • RFUtest: measured fluorescence value of test wells at each test dose of test compounds; • RFUvehicle: measured fluorescence value of test wells when tested with the control DMSO solution.
The percentage of positive control was calculated as follows:
% Positive control=(fold activationtest compound−1)/(fold activationpositive control compound−1)×100% • % Positive control: percentage of PXR activation compared with 20 μM rifampicin activation at each test dose of test compounds; • Fold activationtest compound: fold of activation of normalized luciferase at each test dose of test compounds; • Fold activationpositive control compound: fold of activation of normalized luciferase of test compounds under 20 μM rifampicin.

- hepatocyte CLint at 1 μM [1]: < 1 µL/min/1e6 cells
- solubility at 24 h ([2]; read-out: Calculated solubility): 181 µM
- solubility at 24 h ([2]; read-out: Solubility): 99.7 µg/mL
- PXR activation (% Positive control) (PXR): 14.0 % Positive control
SMILES: COc1ncnc(C2CC2)c1-c1ncc2c(n1)N(Cc1ccc(-c3nc(C(F)(F)F)cn3C)cc1)CC(=O)N2C [Compound 11, 2-(4-cyclopropyl-6-methoxypyrimidin-5-yl)-5-methyl-8-(4-(1-methyl-4-(trifluoromethyl)-1H-imidazol-2-yl)benzyl)-7,8-dihydropteridin-6(5H)-one]
